According to US7414068B2, “Benzopyran derivatives substituted with secondary amines including tetrazole, method for the preparation thereof and pharmaceutical compositions containing them” (Dongbu Hannong Chemical Co., Ltd., priority 2002, dated 2008):

Assays:
isolated rat aorta = test: Vasodilating effect on blood vessel excised from rats (methoxamine-constricted aorta); details: isolated rat aorta constricted with methoxamine (3 μM); read-out: Concentration for inhibition of constriction induced by methoxamine in rat arota (IC50)
Excerpt: Rats (350˜450 g, obtained from the Experimental Animal Team of the Korea Research Institute of Chemical Technology) were knocked to be unconscious by hitting the occipital region, sacrificed by cervical dislocation, and underwent thoracotomy. After being quickly removed, the thoracic aorta was deprived of the adipose tissue and cut into aortic rings of 3 mm width. The aorta was lightly rubbed with cotton club soaked in a modified Krebs Henseleit buffer (Physiological salt solution) to remove the inner epithelial layer therefrom. While being hung in an organ bath containing a physiological buffer, the vascular smooth muscle was allowed to equilibrate under a resting tension of 2 g and then, stand for 1 hour at 37° C. for stabilization, supplying a carbogen consisting of 95% O2˜5% CO2.
Thereafter, the vascular smooth muscle was constricted with 10^−5M phenylephrine and washed several times with physiological saline solution. The said procedure was repeated again to ensure the stable reactivity of vascular smooth muscle to repetitive constriction/relaxation.
Thereafter, 3×10^−6 M methoxamine was applied to induce an intensive constriction in the vascular smooth muscle. When the vasoconstriction induced by the methoxamine was reached and maintained to a maximum, test compounds and control material was cumulatively added to the organ bath in concentration of 1, 3, 10 and 30 μM, respectively, to examine the vasodilating effect. Cromakalim, BMS-180448 (the compound of formula 4) and BMS-191095 (the compound of formula 5), known to be the first generation KATP opener with potent vasodilating effect were used as control materials.
The change rate of constriction by the addition of the drugs compared to the maximal constriction induced by methoxamine was calculated to plot a concentration-relaxation response curve. Through a least linear regression analysis, IC50 that the drug concentration at which the vascular tissue is relaxed to 50% extent of the maximal constriction, was obtained for each drug.

cortical neuron cells = test: Protective effect on iron-induced neuronal cell injury (LDH release); assay type: cell-based; details: FeSO4 50 μM; for protective effect on neuron cell: Inhibition (%, 30 μM compound addition): LDH reduction vs control; for IC50: LDH
Description: From the brains of 17˜18 day-old embryos, cortical neuron cells were isolated and then, cultured at 37° C. for 7˜9 days in a 5% CO2 incubator. The said cortical cell cultures were washed twice with MEM (Minimum essential medium) to reduce the serum level to 0.2%. […] Then, the compound of the said concentration was pre-treated for 30 min, respectively. For the experiment, test compound was dissolved in DMSO and diluted in a medium. At this time, the final concentration of DMSO was not allowed to exceed 0.1%. For control group, only vehicle was applied.
After the said pre-treatment, FeSO4 was added to the medium for a final concentration to be 50 μM. The medium was cultured in CO2 incubator for 24 hours. During the incubation, lactate dehydrogenase (LDH) was released by iron. The serum level of lactate dehydrogenase released into the medium was measured to assess necrosis of neuronal cell by the oxidative toxicity of iron. The protective effect on neuron cells of the test compounds was evaluated by calculating the LDH reduction rate of treatment-group compared with that of the control group.

brain homogenate = test: Inhibitory effect against lipid peroxidation by iron (MDA quantification); assay type: biochemical, rat; details: 100 μM compound, FeCl2 400 μM, 37° C. 30 min
Description: The rat brain was homogenized in a Krebs buffer (15 mM HEPES, 10 mM glucose, 140 mM NaCl, 3.6 mM KCl, 1.5 mM CaCl2, 1.4 mM KH2PO4, 0.7 mM MgCl2, PH 7.4) and the supernatant separated by centrifugation at 12,000 rpm for 10 min was used for further experiments. FeCl2 was added for the final concentration to be 400 μM. Then the brain homogenate was allowed to stand at 37° C. for 30 min for the facilitation of oxidation. Each of the test compounds was added at a concentration of 100 μM. For control group, only vehicle was applied.
Iron facilitates the oxidation of the said brain homogenate to produce malondialdehyde (MDA), lipid peroxidation product. Thus, the lipid peroxidation was determined by MDA quantification. The inhibitory effect against lipid peroxidation of the test compounds was evaluated by calculating MDA reduction rate of the test compounds compared with that of the control group.
Typically, the MDA quantification is achieved by reacting samples with 2-thiobarbituric acid (TBA) and measuring the absorbance at 530 nm. However, this method is unsuitable to treat samples on a large scale because of a boiling step. Thus, in this experiment, N-methyl-2-phenylindole was used instead of TBA.

[1] = Acute oral toxicity test in rats; details: SD, rat, in vivo, single oral dose, suspended in 0.5% methyl cellulose, read-out: lethal dose (LD50) for oral administration
Description: In this test, six-week old SPF SD rats were used with two rats assigned to each group. Each group was consisted of two rats. The compounds prepared in example 1, 7, 11, 17, 22, 24, 26, 28, 30, 32, 34, 42, 52, 54, 55, 56, 57, 59, 60, 61, 70, 75, 77, 79, 81, 83, 85, and 89 were suspended in 0.5% methyl cellulose, respectively. […] Also, hematological test and biochemical analysis were accomplished. After sacrificing the animals, autopsy was performed for macroscopic observations of the organs and tissues. As a result, there was no significant changes in clinical symptoms, body weight and mortalities. Also in hematology, serum chemistry parameters, macroscopic observation and drug-related changes were not observed.

[2] = tested on: isolated ischemic rat heart; test: Cardioprotective effect in ischemic heart models of rats (Langendorff); details: 10 μM
Description: Male rats (300˜450 g, obtained form the experimental animal team of the Korea Research Institute of Chemical Technology) were anaesthetized by the intra-peritoneal injection of sodium pentobarbital at a dose of 100 mg/kg. Heparin (1,000 U/kg) was injected to the tail vein and then the heart was enucleated. Particularly, cannula (PE 240) was inserted to the organ. Rats were mechanically ventilated with a rodent ventilator, in situ aorta cannula was inserted into their aorta. In retorograde perfusion, their hearts were enucleated, then just hung onto Langendorff Apparatus. Tissue attached at the heart was removed. Heart was perfused in oxygenated modified Krebs-Henseleit bicarbonate buffer (composition<mM/L>116 NaCl, 4.7 KCl, 1.1 MgSO4, 1.17 KH2PO4, 24.9 NaHCO3, 2.52 CaCl2, 8.32 Glucose, 2.0 Pyruvate) at a constant perfusion pressure (85 mmHg). A metal cannula attached to latex balloon filled with solvent (ethanol: water=1:1 (v/v)) was placed in the left ventricle through pulmonary vein and connected to a isovolumetric pressure transducer (H.S.E., Germany) for measurement of left ventricular pressure (LVP). The hearts were allowed to equilibrate for 15 min, at which time left ventricular end-diastolic pressure (EDP) was adjusted to 5 mmHg and this balloon volume was maintained throughout the experiment.
Baseline cardiac contractile function, heart rate (HR), and coronary flow (CF) were measured. Cardiac contractile function was calculated by […], yielding LVDP (left ventricular developed pressure). Double product RPP (rate-pressure product) (DP), another important parameter for indirectly assessing cardiac performance in Langendorff heart impossible to measure cardiac output was calculated by multiplying HR by LVDP.
Throughout the experiment, total coronary blood flow was measured by the use of coronary flow probe (diameter: 1.0 mm) installed in aortic cannula with electromagnetic flowmeter. Temperature of heart was steadily maintained by immersing the heart at 37° C. in physiological saline solution to which 95% O2/5% CO2 was constantly supplied. After stabilization for 15 min, the hearts were pre-treated for 10 min in vehicle (0.04% DMSO) or mixture containing the compound of the present invention or control material. Thereafter, cardiac contractile function, HR and CF were repeatedly measured. Global ischemia was induced by completely shutting off the perfusate for 30 min. Severity of ischemia was determined as the time to contracture (TTC, min) during global ischemia in which the first 5 mmHg increase in EDP was observed. Then, the hearts were reperfused and, 30 min later, contractile functions (LVDP, HR and CF) was repeatedly measured. After reperfusion was accomplished for 30 min, LDH (lactate dehydrogenase) was measured as a sensitive index for loss of cell viability with a kit.

Structure (SMILES)	IC50 (isolated rat aorta)	protective effect on neuron cell: Inhibition (%, 30 μM compound addition) (cortical neuron cells; 24 hours)	IC50 (cortical neuron cells; Cortical neurone, 24 h)	IC50 (cortical neuron cells; 24 hours)	inhibitory effect against lipid peroxidation induced by iron (%, 100 μM) (brain homogenate)	LD50 [1]	EDP (mmHg) ([2]; after 30 min global ischemia and reperfusion)	LDH (u/g) ([2]; reperfusion LDH release)	LVDP X HR (%) ([2]; reperfusion, % of pre-treatment DP)	TTC ([2]; time to contracture during global ischemia)
COC(OC)[C@@]1(C)Oc2ccc(N)cc2[C@@H](N(Cc2nnnn2C)c2ccc(Cl)cc2)[C@@H]1O [Example 17, (2S,3S,4R)-6-amino-4-[N-(4-chlorophenyl)-N-(1-methyl-1H-tetrazol-5-ylmethyl)amino]-3-hydroxy-2-methyl-2-dimethoxymethyl-3,4-dihydro-2H-1-benzopyran]	> 30000 nM	110%	< 2000 nM	2000 nM	87%	> 2000 mg/kg	–	–	–	–
COC(OC)[C@@]1(C)Oc2ccc(N)cc2[C@H](N(Cc2nnn(C)n2)c2ccccc2Cl)[C@H]1O [Example 30, (2S,3R,4S)-6-amino-4-[N-(2-chlorophenyl)-N-(2-methyl-2H-tetrazol-5-ylmethyl)amino]-3-hydroxy-2-methyl-2-dimethoxymethyl-3,4-dihydro-2H-1-benzopyran]	–	103%	–	–	84%	> 2000 mg/kg	17.0 mmHg	15.7 u/g	64.7%	27.9 min
COC(OC)[C@@]1(C)Oc2ccc(N)cc2[C@H](N(Cc2nnn(C)n2)c2ccc(Cl)cc2C)[C@H]1O [Example 42, (2S,3R,4S)-6-amino-4-[N-(2-methyl-4-chlorophenyl)-N-(2-methyl-2H-tetrazol-5-ylmethyl)amino]-3-hydroxy-2-methyl-2-dimethoxymethyl-3,4-dihydro-2H-1-benzopyran]	–	103%	2600 nM	–	85%	> 2000 mg/kg	–	–	–	–
COC(OC)[C@@]1(C)Oc2ccc(N)cc2[C@H](N(Cc2nnn(C)n2)c2ccccc2C(C)C)[C@H]1O [Example 52, (2S,3R,4S)-6-amino-4-[N-(2-isopropylphenyl)-N-(2-methyl-2H-tetrazol-5-ylmethyl)amino]-3-hydroxy-2-methyl-2-dimethoxymethyl-3,4-dihydro-2H-1-benzopyran]	–	91%	3000 nM	–	88%	> 2000 mg/kg	–	–	–	–
CCOC(=O)c1ccc(N(Cc2nnn(C)n2)[C@H]2c3cc(N)ccc3O[C@](C)(C(OC)OC)[C@@H]2O)cc1 [Example 54, (2S,3R,4S)-6-amino-4-[N-(4-ethoxycarbonylphenyl)-N-(2-methyl-2H-tetrazol-5-ylmethyl)amino]-3-hydroxy-2-methyl-2-dimethoxymethyl-3,4-dihydro-2H-1-benzopyran]	–	98%	< 2000 nM	1500 nM	87%	> 2000 mg/kg	–	–	–	–
COC(OC)[C@@]1(C)Oc2ccc(N)cc2[C@H](N(Cc2nnn(C)n2)c2ccc(F)cc2)[C@H]1O [Example 56, (2S,3R,4S)-6-amino-4-[N-(4-fluorophenyl)-N-(2-methyl-2H-tetrazol-5-ylmethyl)amino]-3-hydroxy-2-methyl-2-dimethoxymethyl-3,4-dihydro-2H-1-benzopyran]	–	100%	5300 nM	–	76%	> 2000 mg/kg	–	–	–	–
COC(=O)c1cccc(N(Cc2nnn(C)n2)[C@H]2c3cc(N)ccc3O[C@](C)(C(OC)OC)[C@@H]2O)c1 [Example 59]	–	77%	< 2000 nM	1800 nM	70%	> 2000 mg/kg	–	–	–	–
COC(OC)[C@@]1(C)Oc2ccc([N+](=O)[O-])cc2[C@H](N(Cc2nnn(C)n2)c2ccc(O)cc2C)[C@H]1O [Example 64, (2S,3R,4S)-6-nitro-4-[N-(2-methyl-4-hydroxyphenyl)-N-(2-methyl-2H-tetrazol-5-ylmethyl)amino]-3-hydroxy-2-methyl-2-dimethoxymethyl-3,4-dihydro-2H-1-benzopyran]	–	–	–	–	79%	–	–	–	–	–
COC(OC)[C@@]1(C)Oc2ccc(N)cc2[C@@H](N(Cc2nnn(C)n2)c2ccc(Cl)cc2)[C@@H]1OC(C)=O [Example 89, (2S,3S,4R)-6-amino-4-[N-(4-chlorophenyl)-N-(2-methyl-2H-tetrazol-5-ylmethyl)amino]-3-acetoxy-2-methyl-2-dimethoxymethyl-3,4-dihydro-2H-1-benzopyran]	–	–	–	–	81%	> 2000 mg/kg	–	–	–	–
